We go through one compound from patent US20020115710A1, “Composition and method” (priority 2000, published 2002).

One data set deals with GSH:GSSG ratio. Briefly: GSH:GSSG ratio in isolated blood lymphocytes of dogs fed dl-alpha lipoic acid (Example 3). The class given is in vivo. An excerpt: (§1) 30 adult, random source, dogs were utilized for this study. Dogs were at least 10 months of age, not pregnant, not lactating and of reasonable body weight prior to start of test. Animals were randomized into 5 groups for dietary treatment with 3 males and 3 females per each group.
All dogs were fed a control food (0 ppm dl-alpha-lipoic acid added) that met or exceeded all recommendations for nutrients as proposed by the American Association of Feed Control Officials (AAFCO 2000) during a 2 week prefeeding period (Table 1). Following the prefeeding period dogs were randomized into 5 treatment groups with one of the following dl-alpha lipoic acid target-inclusions (dry matter basis): 0 ppm, 150 ppm, 1500 ppm, 3000 ppm, 4500 ppm. In all diets, control and alpha lipoic acid, Vitamin E was added and was present at a level of 600-1000 International Units and Vitamin C was added at levels of 100-200 ppm.
Blood was collected aseptically for complete blood count, and blood biochemistry analysis 2 weeks prior to start and again at 0, 28, 56, 84, 112, 140 and 168 days of the study. In addition, 15 ml of whole blood was collected for isolation of lymphocytes at day 0, 28 and 84 of the dietary intervention.
Heparainzed whole blood was layered onto a 50 ml Accuspin conical centrifuge tube (Sigma Chemical) and an equal volume of Phosphate buffered saline (PBS) was added. Samples were centrifuged at 700 g for 30 minutes without brake. The monocyte layer was harvested, transferred to a 15 ml conical centrifuge tube, resuspended in 1-3 ml of PB, and centrifuged as before (First wash). A second wash was performed as the first wash. Finally, cells were harvested and suspended in perchloric acid (10%w/v) and frozen at −−70C until analysis.
Samples were transferred from −70° C. freezer into a cooler with dry ice in it. Vials were centrifuged at 12,000 rpm for 5 minutes in a refrigerated centrifuge. An aliquot of supernatant for glutathione (GSH) analysis was transferred to a conical test tube.
Derivatization of the acid soluble extracts was by the method of Reed and coworkers (Fariss et al) as modified by Jones (Jones et al)
Briefly, 150 μl extract or external standards were added into a 1.5 ml eppendorf tube followed by addition of 20 μl γ-glu-glu internal standard and 50 μl IAA added followed by mixing. The solution was adjusted to pH ˜10 (purple color) by using KOH—KHCO3 working solution. Solutions were incubated 1 hr. under room temperature in the dark. Sanger's reagent was added at the same volume as of the total volume and the solution was incubated overnight (20 hrs) in the dark at room temperature.
After incubation, the solution was centrifuged at 12000 rpm for 5 minutes with the supernatant transferred into another 1.5 ml eppendorf tube.
Solvents and separation conditions were as described (Fariss, Jones). Levels of GSH and GSSG were quantified relative to authentic standards. Gamma-glutamyl-glutamate was used as an internal standard to assess derivatization efficiency.
Comparison of values for clinical chemistry, hematology and body weights vs baseline were analyzed by way of paired t-test on SAS for windows with significance set at P<0.05. Means of values at each measured time point were separated by a one-way ANOVA with significance set at P<0.05. The difference in GSH:GSSG between day 84 and baseline were analyzed between groups by way of SAS for windows in a one-way ANOVA with significance set at P<0.05.

The subject of the next data set is dogs. Briefly: Feeding safety study of dl-alpha lipoic acid in food: body weight, physical examination, serum biochemistry, hematology (Example 3). The class given is in vivo.
Source text: as §1
All dogs were fed a control food (0 ppm dl-alpha-lipoic acid added) that met or exceeded all recommendations for nutrients as proposed by the American Association of Feed Control Officials (AAFCO 2000) during a 2 week prefeeding period (Table 1). […]
Test foods were the sole source of nutrients except for water. […] After dogs were selected and initial body weights taken, a food dose was calculated for each dog based on the expected ME of the food. Initial food dose calculations were based on the maintenance energy requirement (MER) for the dog modified by a factor to account for normal activity as calculated by the following formula: […]
Dogs were weighed weekly and had food doses adjusted as needed in order to feed enough food to maintain their optimal body weight. Optimal body weight was determined to be 3 on a 5 point scale. […] All measures of body weight and food intake were recorded. […]
Comparison of values for clinical chemistry, hematology and body weights vs baseline were analyzed by way of paired t-test on SAS for windows with significance set at P<0.05. […]

`O=C(O)CCCCC1CCSS1` (racemic) [dl-alpha-lipoic acid]: the “Difference in GSH:GSSG ratio-d 0 to d 84 compared to baseline food” value in the data set on GSH:GSSG ratio (150 ppm inclusion in extruded food, N 6) is 70 ± 20; in the data set with GSH:GSSG ratio (1500 ppm inclusion in extruded food, N 6) it was 24 ± 7; in the data set with GSH:GSSG ratio (3000 ppm inclusion in extruded food, N 4), 10 ± 4; with GSH:GSSG ratio (4500 ppm inclusion in extruded food, N 4), 50 ± 36. For the same compound, the “effect on reduced glutathione (GSH) to oxidized glutathione (GSSG) ratio” value in the data set on GSH:GSSG ratio (84 days of feeding in diet) is “improves”. The “safety of chronic feeding in diet” value with dogs (dog, in vivo) is “safe”. Moreover, in the data set on dogs (dogs, no trend attributable to lipoic acid), the “vomiting during the study” value is listed as “Occasional vomiting was observed in several animals”.
